Paper PMC11845477, “Exploring the principles behind antibiotics with limited resistance” (Nature Communications, 2025)
Several values for one entry are separate records, joined by “and”; a condition that tells them apart may be missing. Equal entries are not always repeated. Where two headings read alike, the source gives them in different places. Where a SMILES comes first, the peptide text is derived from it. Bridges are numbered along the chain shown (N, C = ends). [ ]: non-standard residue; d: D form. The star is where a group is joined. X1 = NC[C@@H](CC(=O)*)c1cccc(Cl)c1; X2 = CC[C@H](C)CCCCC(=O)*; Dab = NCC[C@H](N)C(=O)O; Dap = NC[C@H](N)C(=O)O

How the values were obtained:
K. pneumoniae = assay type: cell-based, Klebsiella pneumoniae
Description: (§1) We employed image analysis to quantify bacterial survival under fixed antibiotic concentrations (10xMIC for 4 hours) on E. coli, A. baumannii, K. pneumoniae, and P. aeruginosa. […] Survival rate was quantified by calculating the ratio of the viable cells after antibiotic treatment and the total initial viable cell count.
(§2) Fig. 9 Killing kinetics of the studied antibiotics. a Bacterial survival rate in response to toxic antibiotic exposure. […] The bars indicate the survival rate (log10) compared to the untreated initial viable cell count (see “Methods”). Data are presented as mean values of 5 biological replicates ± SEM. The antibiotic group differentiation is denoted by color. […] Survival was estimated by measuring cell viability (colony-forming units/ml) of 2 biologically independent strains following a 4-hour exposure to different concentrations of 16 antibiotics on E. coli ATCC25922 (for further details, see “Methods”). The antibiotic concentration that kills 99.9% of the E. coli population is indicated as a vertical dotted line (see Supplementary Data 5). Error bars represent standard error calculated from the colony counts by Poisson’s model. A Hill function was fitted to the dose-response data from two biological replicates, producing sigmoidal curves (Supplementary Data 5). The Hill coefficient reflects how steeply the survival rate decreases in response to increasing antibiotic concentration ([…]). […] X-axis label colors indicate mode of action groups. For detailed information on antibiotic and bacterial species, see Supplementary Data 1. Source data are provided as a Source Data file.
(§3) In this current study, the killing kinetics of each antibiotic was measured according to a previously established experimental protocol[62] with minor modifications. During this assay, the bacterial cultures were exposed to antibiotics in 96-well assay plates and their viability after 4 hours of exposure was quantified by two methods: i) microplating and colony counting or ii) fluorescent staining of cells and counting of the fluorescent units.
(§4) Specifically, these experiments were performed in the following steps: (1) Preparation of bacterial stocks. Single colonies from each strain were isolated and grown overnight in MHB medium at 37 °C, 160 rpm. In case of the fluorescently tagged E. coli strains, the medium was supplemented with 10 μg/mL chloramphenicol, to maintain the pZS2R plasmid. Overnight cultures were diluted 1:5000 and grown to an optical density at 600 nm (OD600) of 0.25. These cultures were concentrated by centrifugation and small aliquots of 50 μL containing ~2.2 × 10^9 cells were frozen in glycerol (stored at −80 °C). (2) Preparing assay plates with antibiotics. 96-well plates were filled with 235 μL MHB and supplemented with antibiotics using an automated digital dispenser (D300e, Tecan). In the case of SCH79797, we used minimal media. […] For testing the clearance efficacy of each antibiotic at a single lethal dose, the 10x of the MIC for each antibiotic-strain pair were prepared in at least three replicates. (3) Antibiotic exposure. During the dose response assay, frozen cultures of the E. coli strains expressing YFP and mCherry were thawed and mixed at a 1:1 ratio, diluted 1:1000 in 30 mL MHB and incubated for 45 min at 37 °C and 160 rpm. During the single-dose assay, the frozen cultures of experimental strains (E. coli, K. pneumoniae, A. baumannii) were also thawed and diluted 1:1000 in 30 mL MHB and incubated at 37 °C to reach an OD of 0.25 and 160 rpm. Following this incubation phase, these bacterial cultures were then aliquoted into the 96-well deep-well antibiotic plates (15 μL culture; total volume of 250 μL) at an inoculum density of about 10^7 CFU.

E. coli = assay type: cell-based, Escherichia coli
Description: as §1, §2, §3, §4

E. coli ATCC25922 = experiment: Dose-response killing curves (99.9% killing concentration, Hill coefficient); assay type: cell-based, Escherichia coli; conditions: dose-response killing curve; for 99.9% killing (10^-3): unit not given
Text: as §2
To test the dose range under which resistance can evolve, we employed advanced microplating and automated image analysis. We quantified bacterial population survival at varying antibiotic concentrations[62] (see “Methods”) in E. coli. Briefly, we generated dose-response curves and investigated how steeply the killing effect increases as the antibiotic concentration rises. In specific, the Hill coefficient representing each bacterial strain-antibiotic combination was calculated to quantify dose-kill kinetics.
as §3
as §4, with “rpm.” for “rpm. Following this incubation phase, these bacterial cultures were then aliquoted into the 96-well deep-well antibiotic plates (15 μL culture; total volume of 250 μL) at an inoculum density of about 10^7 CFU.”

[1] = Klebsiella pneumoniae, survival at 10xMIC for 4 hours, single replicates, (fig 9a source data)
[2] = Escherichia coli, survival at 10xMIC for 4 hours, single replicates, (fig 9a source data)

CN[C@@H]1[C@@H](O[C@H]2O[C@H](CO)[C@@H](N)[C@H](O)[C@H]2O)OC2C[C@@H](N)[C@@H](O[C@H]3[C@H](O)[C@@H](O)[C@H](N)C[C@@H]3N)OC2[C@@H]1O (some centres unmarked) [Apramycin]
Survival rate (log10) (K. pneumoniae; Klebsiella pneumoniae, survival at 10xMIC for 4 hours, single replicates, (fig 9a source data), listed as APR): -1.19 log10 and -1.1 log10 and -1.062 log10 and -0.9595 log10 and -0.945 log10

Nc1nc(-n2cc(C(=O)O)c(=O)c3cc(F)c(N4CC(O)C4)c(Cl)c32)c(F)cc1F [Delafloxacin]
Survival rate (log10) (K. pneumoniae; Klebsiella pneumoniae, survival at 10xMIC for 4 hours, single replicates, (fig 9a source data), listed as DEL): -0.7389 log10 and -0.7966 log10 and -0.7399 log10 and -1.048 log10 and -0.8397 log10 | Survival rate (log10) (E. coli; Escherichia coli, survival at 10xMIC for 4 hours, single replicates, (fig 9a source data), listed as DEL): -1.163 log10 and -1.03 log10 and -1.096 log10 and -1.128 log10 and -1.122 log10

CN(C)[C@@H]1C(O)=C(C(N)=O)C(=O)[C@@]2(O)C(O)=C3C(=O)c4c(O)c(NC(=O)CN5CCCC5)cc(F)c4C[C@H]3C[C@@H]12 [Eravacycline]
Survival rate (log10) (K. pneumoniae; Klebsiella pneumoniae, survival at 10xMIC for 4 hours, single replicates, (fig 9a source data), listed as ERA): -0.6401 log10 and -0.9022 log10 and -0.9087 log10 and -0.8384 log10 and -0.7454 log10 | Survival rate (log10) (E. coli; Escherichia coli, survival at 10xMIC for 4 hours, single replicates, (fig 9a source data), listed as ERA): -1.588 log10 and -1.262 log10 and -1.406 log10 and -1.2833 log10 and -1.1562 log10

CNC(C)C1CCC(N)C(OC2C(N)CC(N)C(OC3OCC(C)(O)C(NC)C3O)C2O)O1 (centres unmarked) [Gentamicin]
Survival rate (log10) (K. pneumoniae; Klebsiella pneumoniae, survival at 10xMIC for 4 hours, single replicates, (fig 9a source data), listed as GEN): -0.9685 log10 and -0.989 log10 and -1.08 log10 and -0.8281 log10 and -1.091 log10 | Survival rate (log10) (E. coli; Escherichia coli, survival at 10xMIC for 4 hours, single replicates, (fig 9a source data), listed as GEN): -0.32 log10 and -0.3695 log10 and -0.2419 log10 and -0.4019 log10 and -0.3632 log10

CC[C@H](C)CCCCC(=O)N[C@@H](CCN)C(=O)N[C@H](C(=O)N[C@@H](CCN)C(=O)N[C@H]1CCNC(=O)[C@H]([C@@H](C)O)NC(=O)[C@H](CCN)NC(=O)[C@H](CCN)NC(=O)[C@H](CC(C)C)NC(=O)[C@@H](Cc2ccccc2)NC(=O)[C@H](CCN)NC1=O)[C@@H](C)O [Polymyxin B] (X2-[Dab]T[Dab][Dab][Dab][dF]L[Dab][Dab]T; lactam 4-C (inferred); N-terminus assumed)
Steepness (Hill Coefficient) (E. coli ATCC25922): 46.82 | 99.9% killing (10^-3) (E. coli ATCC25922): 1.08 | Survival rate (log10) (K. pneumoniae; Klebsiella pneumoniae, survival at 10xMIC for 4 hours, single replicates, (fig 9a source data), listed as PMB): -3.309 log10 and -3.392 log10 and -3.139 log10 and -2.914 log10 and -3.825 log10 | Survival rate (log10) (E. coli; Escherichia coli, survival at 10xMIC for 4 hours, single replicates, (fig 9a source data), listed as PMB): -4.007 log10 and -4.747 log10 and -3.481 log10

CC(C)c1ccc(Cn2ccc3c4c(N)nc(NC5CC5)nc4ccc32)cc1 [SCH79797]
Steepness (Hill Coefficient) (E. coli ATCC25922): 16.39 | 99.9% killing (10^-3) (E. coli ATCC25922): 4.31 | bacterial survival after toxic antibiotic exposure (K. pneumoniae; 10xMIC for 4 hours): eliminated the entire bacterial population | Survival rate (log10) (K. pneumoniae; [1]): -6 log10 | bacterial survival after toxic antibiotic exposure (E. coli; 10xMIC for 4 hours): eliminated the entire bacterial population | Survival rate (log10) (E. coli; [2]): -6 log10

CC(C)C[C@@H]1NC(=O)[C@@H](Cc2ccccc2)NC(=O)[C@H](CCN)NC(=O)[C@@H](NC(=O)[C@H](CN)NC(=O)[C@@H](NC(=O)C[C@H](CN)c2cccc(Cl)c2)[C@@H](C)O)CCNC(=O)[C@H]([C@@H](C)O)NC(=O)[C@H](CCN)NC(=O)[C@H](CCN)NC1=O [SPR206] (X1-T[Dap][Dab][Dab][dF]L[Dab][Dab]T; lactam 3-C (inferred); N-terminus assumed)
Steepness (Hill Coefficient) (E. coli ATCC25922): 59.45 | 99.9% killing (10^-3) (E. coli ATCC25922): 0.18 | Survival rate (log10) (K. pneumoniae; Klebsiella pneumoniae, survival at 10xMIC for 4 hours, single replicates, (fig 9a source data), listed as SPR): -4.671 log10 and -4.37 log10 and -3.671 log10 | Survival rate (log10) (E. coli; Escherichia coli, survival at 10xMIC for 4 hours, single replicates, (fig 9a source data), listed as SPR): -4.747 log10 and -3.687 log10 and -3.935 log10 and -4.007 log10 and -3.902 log10

C[C@@H](O)[C@H]1C(=O)N2C(C(=O)O)=C(S[C@H]3CC[S@@+]([O-])C3)S[C@H]12 [Sulopenem]
Steepness (Hill Coefficient) (E. coli ATCC25922): 1.03 | 99.9% killing (10^-3) (E. coli ATCC25922): 0.18 | Survival rate (log10) (K. pneumoniae; Klebsiella pneumoniae, survival at 10xMIC for 4 hours, single replicates, (fig 9a source data), listed as SUO): -0.7658 log10 and -1.06 log10 and -0.9043 log10 and -0.6919 log10 and -1.504 log10 | Survival rate (log10) (E. coli; Escherichia coli, survival at 10xMIC for 4 hours, single replicates, (fig 9a source data), listed as SUO): -1.918 log10 and -1.5648 log10 and -1.786 log10 and -1.733 log10 and -1.844 log10

POL7306
Steepness (Hill Coefficient) (E. coli ATCC25922): 43.61 | 99.9% killing (10^-3) (E. coli ATCC25922): 2.31 | Survival rate (log10) (K. pneumoniae): -3.973 log10 and -4.193 log10 | Survival rate (log10) (K. pneumoniae; [1]): -4.671 log10 | Survival rate (log10) (E. coli): -4.747 log10 | Survival rate (log10) (E. coli; Escherichia coli, survival at 10xMIC for 4 hours, single replicates, (fig 9a source data), listed as POL): -4.446 log10 and -4.3509 log10

Tridecaptin M152-P3
Steepness (Hill Coefficient) (E. coli ATCC25922): 18.9 | 99.9% killing (10^-3) (E. coli ATCC25922): 4.73 | Survival rate (log10) (K. pneumoniae; Klebsiella pneumoniae, survival at 10xMIC for 4 hours, single replicates, (fig 9a source data), listed as TRD): -2.838 log10 and -3.629 log10 and -3.392 log10 and -4.671 log10 | Survival rate (log10) (E. coli): -4.747 log10 | Survival rate (log10) (E. coli; [2]): -3.386 log10

colistin
Survival rate (log10) (K. pneumoniae; Klebsiella pneumoniae, survival at 10xMIC for 4 hours, single replicates, (fig 9a source data), listed as COL): -3.893 log10 and -3.973 log10 and -4.193 log10 and -4.37 log10 | Survival rate (log10) (E. coli; Escherichia coli, survival at 10xMIC for 4 hours, single replicates, (fig 9a source data), listed as COL): -4.747 log10 and -3.794 log10
